Holding throughout (format): biochemical
One test deals with T1, PI3Kδ (Homo sapiens, UniProt O00329).
T1 construct: made in house
The experiment in a line: TR-FRET enzymatic activity assay, PI3Kδ. Background: TR-FRET usually uses a lanthanide donor and a delayed reading to cut background.

The next test has as its target T2, PI3Kβ (Homo sapiens, UniProt P42338).
T2 construct: made in house
Briefly: TR-FRET enzymatic activity assay, PI3Kβ.

Another test addresses T3, PI3Kγ (Homo sapiens, UniProt P48736).
T3 construct: made in house
Briefly: TR-FRET enzymatic activity assay, PI3Kγ. The note with it: read-out: PI3Kγ IC50. In a few lines:
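Compounds were profiled per isoform in a biochemical kinase reaction, with activity detected by time-resolved fluorescence resonance energy transfer.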

The mark [1] stands for this setting: Table 2, TR-FRET, 2x Km ATP, 30 minutes at 25° C.

Drawing on patent US10308639B2, “Phosphatidylinositol 3-kinase inhibitors” (Gilead Sciences, Inc., priority 2014, dated 2019), this text covers IC50 for 18 compounds.

pIC50: −log10 of the molar value. Read-outs that look alike come from different tables or passages of the source. Some results are limits rather than exact numbers.

T2 sequence (P42338 whole entry): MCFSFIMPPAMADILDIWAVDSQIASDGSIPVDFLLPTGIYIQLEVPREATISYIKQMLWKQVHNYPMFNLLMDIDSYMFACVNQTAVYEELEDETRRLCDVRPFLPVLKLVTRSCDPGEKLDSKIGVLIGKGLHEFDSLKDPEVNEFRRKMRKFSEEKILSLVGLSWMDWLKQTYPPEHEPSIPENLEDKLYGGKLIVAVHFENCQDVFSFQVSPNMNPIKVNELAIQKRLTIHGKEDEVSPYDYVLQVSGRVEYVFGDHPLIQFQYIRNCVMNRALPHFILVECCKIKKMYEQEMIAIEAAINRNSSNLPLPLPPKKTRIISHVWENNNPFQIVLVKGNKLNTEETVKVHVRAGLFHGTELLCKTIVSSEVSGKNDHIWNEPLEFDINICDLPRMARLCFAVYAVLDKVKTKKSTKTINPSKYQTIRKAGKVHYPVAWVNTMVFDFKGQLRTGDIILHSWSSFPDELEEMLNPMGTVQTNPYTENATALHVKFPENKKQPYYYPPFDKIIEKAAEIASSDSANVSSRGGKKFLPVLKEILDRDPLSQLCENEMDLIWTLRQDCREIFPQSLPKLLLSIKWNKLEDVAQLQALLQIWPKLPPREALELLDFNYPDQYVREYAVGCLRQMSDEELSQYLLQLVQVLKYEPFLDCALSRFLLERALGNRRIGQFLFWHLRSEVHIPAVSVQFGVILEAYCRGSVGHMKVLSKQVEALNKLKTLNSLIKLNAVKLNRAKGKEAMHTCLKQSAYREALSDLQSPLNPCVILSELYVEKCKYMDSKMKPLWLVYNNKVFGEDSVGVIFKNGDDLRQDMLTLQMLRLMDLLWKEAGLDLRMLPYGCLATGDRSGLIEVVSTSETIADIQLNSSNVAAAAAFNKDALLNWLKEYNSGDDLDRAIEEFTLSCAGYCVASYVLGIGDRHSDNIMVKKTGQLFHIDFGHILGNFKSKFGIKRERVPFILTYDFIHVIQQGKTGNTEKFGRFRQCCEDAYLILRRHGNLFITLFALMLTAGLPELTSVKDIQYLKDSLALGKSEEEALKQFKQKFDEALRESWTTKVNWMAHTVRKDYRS
T2 sequence (P27986 whole entry partner): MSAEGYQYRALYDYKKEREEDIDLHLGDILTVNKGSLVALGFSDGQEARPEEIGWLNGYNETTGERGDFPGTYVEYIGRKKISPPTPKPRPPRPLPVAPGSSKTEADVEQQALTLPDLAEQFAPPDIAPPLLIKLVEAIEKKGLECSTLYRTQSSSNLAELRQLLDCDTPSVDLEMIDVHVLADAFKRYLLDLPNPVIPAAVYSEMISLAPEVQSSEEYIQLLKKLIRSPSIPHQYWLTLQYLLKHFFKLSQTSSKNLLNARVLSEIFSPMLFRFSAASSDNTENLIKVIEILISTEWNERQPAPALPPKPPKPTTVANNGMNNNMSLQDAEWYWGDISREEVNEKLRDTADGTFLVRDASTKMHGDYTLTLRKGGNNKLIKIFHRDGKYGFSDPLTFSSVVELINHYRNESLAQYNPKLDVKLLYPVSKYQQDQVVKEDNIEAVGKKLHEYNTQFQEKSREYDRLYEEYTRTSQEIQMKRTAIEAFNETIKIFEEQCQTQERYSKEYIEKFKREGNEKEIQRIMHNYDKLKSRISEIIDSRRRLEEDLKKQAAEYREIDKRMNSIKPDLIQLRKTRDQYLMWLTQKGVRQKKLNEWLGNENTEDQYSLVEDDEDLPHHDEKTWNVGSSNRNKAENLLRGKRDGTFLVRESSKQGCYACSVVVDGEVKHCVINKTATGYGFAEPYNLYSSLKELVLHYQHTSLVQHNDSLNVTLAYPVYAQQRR
T3 sequence (P48736 whole entry): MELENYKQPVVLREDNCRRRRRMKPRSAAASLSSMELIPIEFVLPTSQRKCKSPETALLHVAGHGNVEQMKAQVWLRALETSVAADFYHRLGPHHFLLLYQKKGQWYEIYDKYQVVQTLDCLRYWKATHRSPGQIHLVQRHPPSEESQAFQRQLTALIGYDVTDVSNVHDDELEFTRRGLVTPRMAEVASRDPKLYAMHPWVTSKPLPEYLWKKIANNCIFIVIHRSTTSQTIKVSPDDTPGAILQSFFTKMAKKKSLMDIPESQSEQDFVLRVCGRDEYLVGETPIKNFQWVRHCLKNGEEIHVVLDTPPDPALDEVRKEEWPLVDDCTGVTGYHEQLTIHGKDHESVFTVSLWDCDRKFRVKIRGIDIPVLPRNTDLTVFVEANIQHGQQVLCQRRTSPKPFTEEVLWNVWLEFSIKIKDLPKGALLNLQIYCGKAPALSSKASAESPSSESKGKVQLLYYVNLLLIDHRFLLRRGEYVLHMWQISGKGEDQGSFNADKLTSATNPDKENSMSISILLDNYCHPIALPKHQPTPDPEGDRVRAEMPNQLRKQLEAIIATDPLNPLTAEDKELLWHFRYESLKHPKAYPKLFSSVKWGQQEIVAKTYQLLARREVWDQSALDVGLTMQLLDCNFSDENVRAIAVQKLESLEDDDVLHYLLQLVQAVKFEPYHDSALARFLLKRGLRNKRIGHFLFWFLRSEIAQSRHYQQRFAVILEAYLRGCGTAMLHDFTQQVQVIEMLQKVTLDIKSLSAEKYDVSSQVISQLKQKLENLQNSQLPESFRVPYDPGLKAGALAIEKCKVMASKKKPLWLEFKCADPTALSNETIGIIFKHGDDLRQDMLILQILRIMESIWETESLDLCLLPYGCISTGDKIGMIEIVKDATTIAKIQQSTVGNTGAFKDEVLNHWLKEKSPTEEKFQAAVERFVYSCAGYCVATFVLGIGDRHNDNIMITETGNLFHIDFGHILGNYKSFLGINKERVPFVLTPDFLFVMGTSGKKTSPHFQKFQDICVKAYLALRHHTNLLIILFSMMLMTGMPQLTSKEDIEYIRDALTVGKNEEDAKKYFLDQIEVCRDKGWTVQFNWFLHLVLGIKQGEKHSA
T1 sequence (O00329 whole entry): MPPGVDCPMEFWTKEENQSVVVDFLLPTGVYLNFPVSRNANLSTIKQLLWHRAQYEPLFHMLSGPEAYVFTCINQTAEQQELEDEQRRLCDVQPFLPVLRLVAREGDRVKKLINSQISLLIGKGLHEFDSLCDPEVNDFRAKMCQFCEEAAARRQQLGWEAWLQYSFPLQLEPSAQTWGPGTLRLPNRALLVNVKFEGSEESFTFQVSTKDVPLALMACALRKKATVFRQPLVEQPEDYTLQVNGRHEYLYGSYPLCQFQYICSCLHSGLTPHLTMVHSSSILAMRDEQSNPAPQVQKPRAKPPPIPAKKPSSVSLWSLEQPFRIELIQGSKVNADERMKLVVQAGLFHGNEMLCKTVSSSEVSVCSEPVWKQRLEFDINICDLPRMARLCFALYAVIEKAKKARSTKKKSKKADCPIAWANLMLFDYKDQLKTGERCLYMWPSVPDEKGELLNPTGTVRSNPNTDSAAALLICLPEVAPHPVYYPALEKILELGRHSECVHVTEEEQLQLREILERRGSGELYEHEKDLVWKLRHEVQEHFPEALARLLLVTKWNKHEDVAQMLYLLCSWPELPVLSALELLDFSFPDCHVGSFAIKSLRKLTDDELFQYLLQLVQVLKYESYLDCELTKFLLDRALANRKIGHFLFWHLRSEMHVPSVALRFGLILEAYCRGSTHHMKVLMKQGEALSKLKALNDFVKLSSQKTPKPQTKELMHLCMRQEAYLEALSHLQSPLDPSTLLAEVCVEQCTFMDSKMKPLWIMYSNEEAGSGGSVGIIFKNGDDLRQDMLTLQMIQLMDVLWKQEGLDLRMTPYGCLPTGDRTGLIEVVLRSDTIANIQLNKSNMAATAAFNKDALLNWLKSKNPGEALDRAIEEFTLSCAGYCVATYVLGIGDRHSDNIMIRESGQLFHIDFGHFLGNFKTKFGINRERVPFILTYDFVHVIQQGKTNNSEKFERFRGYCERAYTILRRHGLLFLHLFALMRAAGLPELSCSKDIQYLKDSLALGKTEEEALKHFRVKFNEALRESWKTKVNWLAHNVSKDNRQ
T1 sequence (P27986 whole entry partner): as the sequence (P27986 whole entry partner) above

As usually defined, the pIC50 is the negative decadic logarithm of the IC50, by convention in mol/L. As to `Cc1c[nH]nc1-n1c([C@@H](Nc2nc(N)nc(N)c2C#N)C2CC2)nc2cccc(Cl)c2c1=O` [Compound 247, (S)-2,4-diamino-6-(((5-chloro-3-(4-methyl-1H-pyrazol-3-yl)-4-oxo-3,4-dihydroquinazolin-2-yl)(cyclopropyl)methyl)amino)pyrimidine-5-carbonitrile], the pIC50 at PI3Kδ (Table 2a, same assay) is 8.40; on PI3Kβ (Table 2a, same assay), 7.15; at PI3Kγ (Table 2a, same assay), 6.14.
Take `CC[C@H](Nc1nc(N)nc(N)c1Cl)c1nc2c(C#N)cccc2c(=O)n1-c1cc[nH]n1` [Compound 78, (S)-2-(1-((2,6-diamino-5-chloropyrimidin-4-yl)amino)propyl)-4-oxo-3-(1H-pyrazol-3-yl)-3,4-dihydroquinazoline-8-carbonitrile]: the values for the pIC50 on PI3Kδ (setting [1]), on PI3Kβ (setting [1]) and on PI3Kγ were 7.28, 6.72 and less than 5.00, respectively.
Consider `CC[C@H](Nc1nc(N)nc(N)c1C#N)c1nc2cccc(Cl)c2c(=O)n1-c1cc[nH]n1` [Compound 1, (S)-2,4-diamino-6-((1-(5-chloro-4-oxo-3-(1H-pyrazol-3-yl)-3,4-dihydroquinazolin-2-yl)propyl)amino)pyrimidine-5-carbonitrile], for which the pIC50 was 9.22 on PI3Kδ (setting [1]), 9.00 at PI3Kβ (setting [1]) and 6.48 at PI3Kγ (setting [1]).
Regarding `C[C@H](Nc1nc(N)nc(N)c1C#N)c1nc2c(C(F)F)cc(F)cc2c(=O)n1-c1cc[nH]n1` [Compound 140], the pIC50 against PI3Kδ (Table 2a, same assay) is 8.30; on PI3Kβ (Table 2a, same assay), 8.70; on PI3Kγ (Table 2a, same assay), 5.22.
With `CC[C@H](Nc1ncnc2scnc12)c1nc2cccc(C#N)c2c(=O)n1-c1cc[nH]n1` [Compound 73, (S)-4-oxo-3-(1H-pyrazol-3-yl)-2-(1-(thiazolo[5,4-d]pyrimidin-7-ylamino)propyl)-3,4-dihydroquinazoline-5-carbonitrile], the pIC50 is 7.74 at PI3Kδ (setting [1]), 7.02 at PI3Kβ (setting [1]) and less than 5.00 at PI3Kγ.
Regarding `N#Cc1c(N)nc(N)nc1N[C@H](c1nc2cccc(C(F)(F)F)c2c(=O)n1-c1cc[nH]n1)C1CC1` [Compound 207, (S)-2,4-diamino-6-((cyclopropyl(4-oxo-3-(1H-pyrazol-3-yl)-5-(trifluoromethyl)-3,4-dihydroquinazolin-2-yl)methyl)amino)pyrimidine-5-carbonitrile], the pIC50 was 8.70 on PI3Kδ (Table 2a, same assay); 8.40 on PI3Kβ (Table 2a, same assay); 6.19 at PI3Kγ (Table 2a, same assay).
Regarding `CC[C@H](Nc1nc(N)nc(N)c1C#N)c1nc2c(C)ccc(F)c2c(=O)n1-c1cn[nH]c1` [Compound 35, (S)-2,4-diamino-6-((1-(5-fluoro-8-methyl-4-oxo-3-(1H-pyrazol-4-yl)-3,4-dihydroquinazolin-2-yl)propyl)amino)pyrimidine-5-carbonitrile], the results for the pIC50 against PI3Kδ (setting [1]), on PI3Kβ (setting [1]) and at PI3Kγ (setting [1]) were 8.00, 7.68 and 5.85, respectively.
For the compound `O=c1c2c(Cl)cccc2nc([C@H](COCc2ccccc2)Nc2ncnc3scnc23)n1-c1cc[nH]n1` [Compound 48, (R)-2-(2-(benzyloxy)-1-(thiazolo[5,4-d]pyrimidin-7-ylamino)ethyl)-5-chloro-3-(1H-pyrazol-3-yl)quinazolin-4(3H)-one], the results for the pIC50 at PI3Kδ (setting [1]), against PI3Kβ (setting [1]) and on PI3Kγ were 8.10, 8.05 and less than 5.00, respectively.
Regarding `CC[C@H](Nc1ncnc2[nH]cc(F)c12)c1nc2c(Cl)ccc(Cl)c2c(=O)n1-c1cn[nH]c1` [Compound 58, (S)-5,8-dichloro-2-(1-((5-fluoro-7H-pyrrolo[2,3-d]pyrimidin-4-yl)amino)propyl)-3-(1H-pyrazol-4-yl)quinazolin-4(3H)-one], the pIC50 is 7.85 against PI3Kδ (setting [1]), 6.49 on PI3Kβ (setting [1]) and 5.23 at PI3Kγ (setting [1]).
Turning to `C[C@H](Nc1nc(N)nc(N)c1Cl)c1nc2cccc(C(F)F)c2c(=O)n1-c1cc[nH]n1` [Compound 126, (S)-2-(1-((2,6-diamino-5-chloropyrimidin-4-yl)amino)ethyl)-5-(difluoromethyl)-3-(1H-pyrazol-3-yl)quinazolin-4(3H)-one], the pIC50 is 8.52 against PI3Kδ (setting [1]), 8.30 against PI3Kβ (setting [1]) and 5.55 on PI3Kγ (setting [1]).
`C[C@H](Nc1nc(N)nc(N)c1Cl)c1nc2c(F)ccc(Cl)c2c(=O)n1-c1cc[nH]n1` [Compound 67, (S)-5-chloro-2-(1-((2,6-diamino-5-chloropyrimidin-4-yl)amino)ethyl)-8-fluoro-3-(1H-pyrazol-3-yl)quinazolin-4(3H)-one]: the pIC50 is 8.52 at PI3Kδ (setting [1]), 8.52 against PI3Kβ (setting [1]) and 5.55 on PI3Kγ (setting [1]).
Regarding `C[C@H](Nc1nc(N)nc(N)c1Cl)c1nc2c(Cl)cc(F)cc2c(=O)n1-c1cn[nH]c1` [Compound 265, (S)-8-chloro-2-(1-((2,6-diamino-5-chloropyrimidin-4-yl)amino)ethyl)-6-fluoro-3-(1H-pyrazol-4-yl)quinazolin-4(3H)-one], the negative-log IC50 (pIC50) against PI3Kδ (Table 2a, same assay) was 7.51; against PI3Kβ (Table 2a, same assay), 6.74; at PI3Kγ (Table 2a, same assay), 5.51.
Regarding `C[C@H](Nc1ncnc2scnc12)c1nc2c(Cl)ccc(Cl)c2c(=O)n1-c1n[nH]cc1Br` [Compound 85, (S)-3-(4-bromo-1H-pyrazol-3-yl)-5,8-dichloro-2-(1-(thiazolo[5,4-d]pyrimidin-7-ylamino)ethyl)quinazolin-4(3H)-one], the pIC50 is 8.40 on PI3Kδ (setting [1]), 6.77 against PI3Kβ (setting [1]) and 5.05 at PI3Kγ (setting [1]).
Consider `C[C@H](Nc1nc(N)nc(N)c1C#N)c1nc2cc(Cl)ccc2c(=O)n1-c1cc[nH]n1` [Compound 139], for which the negative-log IC50 (pIC50) on PI3Kδ (Table 2a, same assay) is 7.68; at PI3Kβ (Table 2a, same assay), 7.48; on PI3Kγ (Table 2a, same assay), less than 5.00.
As to `CC[C@H](Nc1nc(N)nc(N)c1C#N)c1nc2c(C)cccc2c(=O)n1-c1cc[nH]n1` [Compound 34, (S)-2,4-diamino-6-((1-(8-methyl-4-oxo-3-(1H-pyrazol-3-yl)-3,4-dihydroquinazolin-2-yl)propyl)amino)pyrimidine-5-carbonitrile], the pIC50 on PI3Kδ (setting [1]) is 8.10; on PI3Kβ (setting [1]), 8.15; at PI3Kγ (setting [1]) it was 5.21.
In the case of `O=c1c2c(Cl)cccc2nc([C@@H](Nc2ncnc3scnc23)C2CC2)n1-c1cn[nH]c1` [Compound 25, (S)-5-chloro-2-(cyclopropyl(thiazolo[5,4-d]pyrimidin-7-ylamino)methyl)-3-(1H-pyrazol-4-yl)quinazolin-4(3H)-one], the pIC50 on PI3Kδ (setting [1]) is 9.00; against PI3Kβ (setting [1]), 8.30; on PI3Kγ (setting [1]) it was 6.89.
Regarding `N#Cc1c(N[C@H](c2nc3c(C(F)F)cc(F)cc3c(=O)n2-c2cc[nH]n2)C2CC2)nc(N)nc1C(F)F` [Compound 145, (S)-2-amino-4-((cyclopropyl(8-(difluoromethyl)-6-fluoro-4-oxo-3-(1H-pyrazol-3-yl)-3,4-dihydroquinazolin-2-yl)methyl)amino)-6-(difluoromethyl)pyrimidine-5-carbonitrile], the negative-log IC50 (pIC50) against PI3Kδ (Table 2a, same assay) was 7.34; at PI3Kβ (Table 2a, same assay) it was 7.55; at PI3Kγ (Table 2a, same assay), less than 5.00.
`CCC[C@H](Nc1nc(N)nc(N)c1Cl)c1nc2cccc(Cl)c2c(=O)n1-c1cn[nH]c1` [Compound 250, (S)-5-chloro-2-(1-((2,6-diamino-5-chloropyrimidin-4-yl)amino)butyl)-3-(1H-pyrazol-4-yl)quinazolin-4(3H)-one]: the negative-log IC50 (pIC50) on PI3Kδ (Table 2a, same assay) was 7.64; at PI3Kβ (Table 2a, same assay), 6.80; at PI3Kγ (Table 2a, same assay) it was 5.69.
